In PubChem BioAssay (NCI):
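All cell lines were grown in 96-well plates and treated with compound for 48 hours. GI50 = concentration required for 50% inhibition of growth. TGI: concentration producing complete growth inhibition.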

Columns and labels:
Assay in all cases: NCI tumour cell line growth inhibition, 48 h
[1] = tested on: M14 melanoma
[2] = tested on: HOP-62 NSCLC
[3] = tested on: ACHN renal
[4] = tested on: NCI-H23 lung
[5] = tested on: TK-10 renal
[6] = tested on: NCI-H522 lung
[7] = tested on: MDA-MB-231 breast
[8] = tested on: DU-145 prostate
[9] = tested on: RPMI-8226 leukemia
[10] = tested on: CAKI-1 renal

| Structure (SMILES) | GI50 [1] [µM] | TGI [1] [µM] | GI50 [2] [µM] | TGI [2] [µM] | GI50 [3] [µM] | TGI [3] [µM] | GI50 [4] [µM] | TGI [4] [µM] | GI50 [5] [µM] | TGI [5] [µM] | GI50 [6] [µM] | TGI [6] [µM] | GI50 [7] [µM] | TGI [7] [µM] | GI50 [8] [µM] | TGI [8] [µM] | GI50 [9] [µM] | TGI [9] [µM] | GI50 [10] [µM] | TGI [10] [µM] |
| --- | --- | --- | --- | --- | --- | --- | --- | --- | --- | --- | --- | --- | --- | --- | --- | --- | --- | --- | --- | --- |
| CCCCN(CC)CCCCCCCCCCN1CCCc2cc(OC)ccc21 | 2.11 | 4.99 | 2.69 | 10.2 | 3.91 | 14.9 | 2.16 | 6.09 | 1.89 | 3.91 | 1.66 | 3.5 | 2.26 | 7.04 | 6.48 | 53 | 2.15 | 4.79 | 2.13 | 7.47 |
| NCCCNc1nc2ccc(Cl)cc2c2c(=O)c3cc(F)ccc3sc12 | 3.6 | 14.2 | 6.47 | 28.5 | 1.94 | 4 | 5.61 | 21.2 | 3.08 | 11.1 | 2.26 | 5.67 | 1.78 | 4.09 | 1.97 | 4.05 | 2.77 | 9.79 | 6.39 | 20.2 |
| O=C(O)CNCCc1ccccc1 |  | > 100 |  | > 100 |  | > 100 |  | > 100 |  | > 100 |  | > 100 |  | > 100 |  | > 100 |  | > 100 |  | > 100 |
| C=C(CN1CCN(c2ccccc2C(F)(F)F)CC1)c1ccc(C(=O)Nc2ccccc2N)cc1 | 4.47 | > 100 | 4.76 | > 44.4 | 7.19 | > 100 | 5.93 | > 100 | 4.63 | > 67.7 | 1.91 | > 28.1 | 4.68 | > 56.1 | 7.51 | > 49.5 | 0.164 | 1.01 | 7.97 | > 51.4 |
| CS(=N)(=O)CCC(N)P(=O)(O)O (configuration not stated) |  | > 100 |  | > 100 |  | > 100 |  | > 100 |  | > 100 |  | > 100 |  | > 100 |  | > 100 |  | > 100 |  | > 100 |
| O=C1c2cccnc2C(=O)c2c1c(C(=O)OCCc1ccccn1)c1ccccn21 | 0.0262 | 0.33 | < 0.01 | 0.326 | < 0.01 | 1.22 | 0.0218 | 1.06 | 0.34 | 2.19 | 0.12 | 0.714 | 1.48 | > 100 | 0.0296 | 1.22 | 0.219 |  | 0.039 | 11.3 |
| COc1cc2c3c(n(CCCN4CCCNCC4)c(=O)c2cc1OC)-c1cc2c(cc1C3=O)OCO2 | 0.521 | 7.12 | 0.558 | 4.46 | 0.193 | 0.751 | 0.346 | 2.57 | 1.35 | 7.54 | 1.87 | 24.8 | 1.06 | 3.5 | 0.166 | 2.02 | 0.571 | 2.1 | 0.12 | 1.65 |
| Oc1ccc(Cc2ccc(O)c(C3CC(c4ccc(Cl)cc4)=NN3)c2)cc1C1CC(c2ccc(Cl)cc2)=NN1 (configuration not stated) | 3.93 | > 39.3 | 3.81 | > 45.2 | 3.1 | > 31.8 | 3.07 | > 37.1 | 4.79 | > 100 | 2.56 | 9.88 | 2.49 | 8.94 | 3.22 | > 100 | 3.89 | > 100 | 3.19 | > 58.4 |
| CCN(CC)CC(O)COc1c(Br)c(Br)c(Br)c2c1OC(C)(C)C2 (configuration not stated) | 2.01 | 4.12 | 4.03 | 19.7 | 4.94 | 16.4 | 9.04 | 28.9 | 4.19 | 14.9 | 3.42 | 14.4 | 2.44 | 6.08 | 5.43 | 18.1 | 2.01 | 4.45 | 6.8 | 23.8 |
| CCCOc1ccc(/C=N/Nc2cc(C)nc3ccc(Cl)cc23)cc1 | 1.69 | 3.23 | 1.58 | 2.98 | 1.74 | 3.12 | 1.81 | 3.52 | 2.04 | 3.47 | 1.75 | 3.42 | 1.85 | 3.49 | 1.9 | 3.42 | 1.81 | 3.99 | 1.78 | 3.2 |
| COc1ccc(C2CC(c3ccc4ccccc4c3)=NN2c2nc(O)c(C3=c4cc(OC)ccc4=NC3=O)s2)cc1 (configuration not stated) | 0.072 | 0.726 | 0.0633 | 0.158 | 0.0678 | 0.419 | 0.0348 | 0.191 | 0.0905 | 0.371 | 0.0519 | 0.154 | 0.0408 | 0.201 | 0.0449 | 14.1 | 0.27 | 3.93 | 0.349 |  |
| c1ccc(-c2cn(-c3ccccc3)c(-c3ccccc3)n2)cc1 | 11 | 23.8 | 2.72 | 7.88 | 15.4 | 28.7 | 16.6 | 34.9 | 14.7 | 30.9 | 13.3 | 27.2 | 18.4 | 36.5 | 11.6 | 23.8 | 2.31 | 5.47 | 17.4 | 31.6 |
| O=C(c1cccs1)c1nc2cc(Cl)ccc2[n+]([O-])c1C(F)(F)F | > 100 | > 100 | > 100 | > 100 | > 100 | > 100 | > 100 | > 100 | > 100 | > 100 | 29.6 | > 100 | > 100 | > 100 | > 100 | > 100 | 64 | > 100 | > 100 | > 100 |
| C/C(=N\O)c1cccc(Nc2cc(-c3ccccc3)nc3c(O)cccc23)c1 | 3.47 | 18.8 | 3.09 | 15 | 6.57 | 22.5 | 4.2 | 20.2 | 8.44 | 47.7 | 1.85 | 9.36 | 2.34 | 13.3 | 2.96 | 16.6 | 2.46 | 7.98 | 2.78 | > 37.3 |
| O=c1[nH]c2ccccc2n2cc3ccccc3c12 | 6.39 | 22.9 | 4.42 | 17.9 | 1.81 | 7.18 | 11.1 | 36.6 | 20.6 | 36.9 | 13.7 | 32.3 | 0.948 | 10.2 | 7.61 | 37.7 | 3.7 | 22.6 | 17.6 | 35.5 |
| O=C(O)c1ccc(C(=O)O)c(C(=O)O)c1.[NH-]C1CCCCC1[NH-].[Pt+2] | 9.61 | 37.4 | 11.7 | > 74.4 | 1.96 | 44.1 | 4.87 | 38.4 | 25.6 | 85.8 |  | 24.7 | 16.7 | > 73.6 | 11.1 | 84.1 | 0.581 | 48.9 | 1.86 | 32.7 |
| O=C1C=CC(=O)N1c1ccc(I)cc1 |  | 31.2 |  | 38.2 |  | 33.3 |  | 51.2 |  | 30.3 |  | 47.4 |  | 52.7 |  | 38 |  | 22.1 |  | 34.3 |
| O=C(O)c1ccc(Oc2nc3ccccc3s2)cc1 |  | > 100 |  | > 100 |  | > 100 |  | > 100 |  | > 100 |  | > 100 |  | > 100 |  | > 100 |  | > 100 |  | > 100 |
| C/C(=N/NC(=S)N1CC2CCC(CC2)C1)c1cnccn1 |  | 1.85 |  | 14.9 |  | 10.1 |  | 13.7 |  | 16.7 |  | 10.1 |  | 16.8 |  | 13.8 |  | 4.95 |  | 11.3 |
| NC(=N\N=C/c1ccc(Cl)cc1Cl)/C(N)=N\N=C/c1ccc(Cl)cc1Cl | > 83.1 | > 100 | 15.1 | 38.7 | 0.576 | 15.6 | 39.3 | > 100 | 1.25 | 16.7 | 63 | > 100 | 17.1 | > 100 | > 100 | > 100 | > 100 | > 100 | 16.3 | > 100 |
| O=Cc1ccc(-c2ccc(-c3ccc(C=O)o3)[se]2)o1 | > 100 | > 100 | 57.5 | > 100 | 45.5 | > 100 | 56.3 | > 100 | 7.73 | > 100 | 16.3 | 31.1 | 54 | > 100 | > 100 | > 100 | > 100 | > 100 | > 100 | > 100 |
